In paper PMC8607797 (Nature chemical biology, 2021):

Legend:
Assay type in all cases: cell-based
[1] = biological target: T1, Ephx1 (Mus musculus, UniProt Q9D379); experiment: live-cell chemoproteomic competition of probe […]
T1 sequence (Q9D379 1-455): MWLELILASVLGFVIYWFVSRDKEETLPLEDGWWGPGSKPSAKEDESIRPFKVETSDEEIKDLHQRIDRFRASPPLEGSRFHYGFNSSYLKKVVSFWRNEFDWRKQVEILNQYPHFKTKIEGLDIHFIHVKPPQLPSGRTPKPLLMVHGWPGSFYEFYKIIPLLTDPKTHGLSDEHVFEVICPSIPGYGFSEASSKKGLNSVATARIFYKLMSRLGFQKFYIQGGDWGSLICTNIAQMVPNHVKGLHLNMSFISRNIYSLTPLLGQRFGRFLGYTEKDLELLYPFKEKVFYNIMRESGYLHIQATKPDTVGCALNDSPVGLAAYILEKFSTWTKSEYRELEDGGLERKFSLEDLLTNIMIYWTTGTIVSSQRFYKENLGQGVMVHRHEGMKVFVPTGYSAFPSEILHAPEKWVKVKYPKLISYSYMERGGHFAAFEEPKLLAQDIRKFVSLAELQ

[2] = biological target: T2, Cav1 (Mus musculus, UniProt P49817); experiment: live-cell chemoproteomic competition of probe […]
T2 sequence (P49817 2-178): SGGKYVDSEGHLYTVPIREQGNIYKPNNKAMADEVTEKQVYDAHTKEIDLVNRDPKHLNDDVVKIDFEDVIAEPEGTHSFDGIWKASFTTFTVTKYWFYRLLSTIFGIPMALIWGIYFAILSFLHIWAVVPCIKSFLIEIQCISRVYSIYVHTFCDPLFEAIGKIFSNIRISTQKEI

[3] = biological target: T3, Tmem97 (σ2 receptor) (Mus musculus, UniProt Q8VD00); experiment: live-cell competition of probe […] labeling, in-gel fluorescence
T3 sequence (Q8VD00 1-176): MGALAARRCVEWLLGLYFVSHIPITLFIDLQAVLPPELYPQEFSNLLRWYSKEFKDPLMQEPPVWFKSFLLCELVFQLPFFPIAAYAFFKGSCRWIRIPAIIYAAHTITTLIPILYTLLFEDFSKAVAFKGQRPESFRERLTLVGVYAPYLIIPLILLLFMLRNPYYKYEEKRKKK

Row | live-cell competition of probe 2 labeling, in-gel fluorescence [3] [% competition at 50] | SMILES | live-cell chemoproteomic competition of probe 2 (TMT MS) [1] | live-cell chemoproteomic competition of probe 2 (TMT MS) [2]
1 |  | CC(C)CCC[C@](C)(O)[C@H]1CC[C@H]2[C@@H]3CC=C4C[C@@H](O)CC[C@]4(C)[C@H]3CC[C@@]21C [compound 1, 20(S)-hydroxycholesterol] | The most competable proteins encompassed the highly enriched targets Tmem97, Ephx1, and Cav1 | The most competable proteins encompassed the highly enriched targets Tmem97, Ephx1, and Cav1
2 | 50 | CC(C)CCC[C@@](C)(O)[C@H]1CC[C@H]2[C@@H]3CC=C4C[C@@H](O)CC[C@]4(C)[C@H]3CC[C@@]21C [compound 13, 20(R)-hydroxycholesterol] |  | 
